Test results as given in patent publication US20260166039A1 (SCHRÖDINGER, INC., priority 2022, published 2026).
Where two headings read alike, the source gives them in different places.

Key:
Wee1 kinase domain = target: T1, Wee1 kinase domain (Homo sapiens, UniProt P30291); assay: Wee1 Kinase Biochemical Assay (ADP-Glo); settings: 15 uM ATP
T1 construct: Wee1 kinase domain was purchased from Carna (catalog #05-177); purchased Carna 05-177
Summary of the method: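 ADP-Glo detection of ADP produced after 4 h at 25° C by 1 nM Wee1 kinase domain on 2 ng/mL poly(Lys,Tyr 4:1) with 15 uM ATP. Buffer: 40 mM Tris-HCl, 20 mM MgCl2, 0.1 mg/mL BSA, 2 mM DTT. Inhibition is relative to DMSO (high) and saturating Wee1 inhibitor (low) controls.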

[1] = system: phosphorylation of Cdc2 Y15 (Wee1 substrate) in A427 cells; assay: Phosphorylated Cdc2 MSD Electrochemiluminescence Assay; type: cell-based; settings: Homo sapiens
Summary of the method: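 Read-out: percent residual phospho-Cdc2 Y15 relative to DMSO and positive-control Wee1 inhibitor, measured by MSD electrochemiluminescence capture/detection antibody assay in cell lysates. A427 cells received duplicate 3-fold compound dilution series 20 h post-seeding, with 6 h total incubation at 37 °C.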

[2] = class symbols, 1 nM Wee1 enzyme, 4 hours at 25° C.
[3] = A-427, class symbols, read-out: A427 pCDC2 MSD IC50

T1 sequence (P30291 299-569 limits assumed): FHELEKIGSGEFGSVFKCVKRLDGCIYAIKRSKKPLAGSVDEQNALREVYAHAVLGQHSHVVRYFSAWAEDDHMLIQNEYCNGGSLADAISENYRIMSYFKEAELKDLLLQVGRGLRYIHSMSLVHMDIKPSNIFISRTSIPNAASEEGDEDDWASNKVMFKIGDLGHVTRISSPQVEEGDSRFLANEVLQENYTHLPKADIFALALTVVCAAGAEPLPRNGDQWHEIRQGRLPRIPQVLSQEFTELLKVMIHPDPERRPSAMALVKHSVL

| Compound | IC50 (Wee1 kinase domain; [2]) [nM] | IC50 [1, 3] [nM] | IC50 (Wee1 kinase domain; Wee1 kinase domain, ADP-Glo) [nM] | IC50 ([1]; A-427, pCDC2 MSD) [nM] |
| --- | --- | --- | --- | --- |
| Cc1cc(Nc2ncc3c(n2)N(c2cccc(C(C)(C)O)n2)[C@@H]2CC(C)(C)OC[C@]32C)ccc1N1CCN(C)CC1 (single isomer, unassigned) [Example 9] |  |  | < 10 | 100 to 1000 |
| CN1CCC[C@@H]1c1ccc(Nc2ncc3c(n2)N(c2cccc(N=S(C)(C)=O)n2)[C@@H]2CC(C)(C)OC[C@]32C)cc1 (single isomer, unassigned) [Example 127] |  |  | < 10 | < 100 |
| CC1(C)C[C@@H]2N(c3cccc(C(C)(C)O)n3)c3nc(Nc4ccc(O[C@@H]5CCNC5)cc4)ncc3[C@]2(C)CO1 (single isomer, unassigned) [Example 417] | < 10 | < 100 |  |  |
| C[C@H]1COC(=O)N1c1cccc(N2c3nc(Nc4ccc([C@H]5CCNC5)nc4)ncc3[C@@]3(C)COC(C)(C)C[C@@H]23)n1 (single isomer, unassigned) [Example 259] |  |  | < 10 | 100 to 1000 |
| C[C@H]1COC(=O)N1c1cccc(N2c3nc(Nc4ccc(OC5CCN(C)CC5)nc4)ncc3[C@@]3(C)COC(C)(C)C[C@@H]23)n1 (single isomer, unassigned) [Example 335] |  |  | < 10 | < 100 |
| Cc1cc(Nc2ncc3c(n2)N(c2cccc(N=S(C)(C)=O)n2)[C@@H]2CC(C)(C)OC[C@]32C)ccc1[C@H]1COCCN1 (single isomer, unassigned) [Example 120] |  |  | < 10 | < 100 |
| CNCc1cccc(N2c3nc(Nc4ccc([C@@]5(C)CCN(C)C5=O)cc4)ncc3[C@@]3(C)COC(C)(C)C[C@@H]23)n1 (single isomer, unassigned) [Example 80] |  |  | < 10 | 100 to 1000 |
| C[C@H]1COC(=O)N1c1cccc(N2c3nc(Nc4ccc(C5CCN(C)CC5)nc4)ncc3[C@@]3(C)COC(C)(C)C[C@@H]23)n1 (single isomer, unassigned) [Example 297] |  |  | < 10 | 100 to 1000 |
| CNCc1cccc(N2c3nc(Nc4ccc(C(C)(C)C(=O)N(C)C)cc4)ncc3[C@@]3(C)COC(C)(C)C[C@@H]23)n1 (single isomer, unassigned) [Example 76] |  |  | < 10 | 100 to 1000 |
| CN1CC[C@H](n2ccc(Nc3ncc4c(n3)N(c3cccc(N=S(C)(C)=O)n3)[C@@H]3CC(C)(C)OC[C@]43C)n2)C1 (single isomer, unassigned) [Example 225] |  |  | < 10 | 1000 to 10000 |
| CN1CCN(c2ccc(Nc3ncc4c(n3)N(c3cccc(C(C)(C)O)n3)[C@@H]3CC(C)(C)OC[C@]43C)cc2)CC1 (single isomer, unassigned) [Example 4] |  |  | < 10 | 100 to 1000 |
| Cc1cc(Nc2ncc3c(n2)N(c2cccc(C(C)(C)O)n2)[C@@H]2CC(C)(C)OC[C@]32C)ccc1N1C[C@H]2C[C@@H]1CN2C (single isomer, unassigned) [Example 425] | < 10 | 100 to 1000 |  |  |
| CN1CCC[C@H](n2cc(Nc3ncc4c(n3)N(c3cccc(N=S(C)(C)=O)n3)[C@@H]3CC(C)(C)OC[C@]43C)cn2)C1 (single isomer, unassigned) [Example 199] |  |  | < 10 | 100 to 1000 |
| Cc1cc(Nc2ncc3c(n2)N(c2cccc(N=S(C)(C)=O)n2)[C@@H]2CC(C)(C)OC[C@]32C)ccc1C1CCN(C)CC1 (single isomer, unassigned) [Example 104] |  |  | < 10 | < 100 |
| C[C@H]1COC(=O)N1c1cccc(N2c3nc(Nc4ccc(O[C@@H]5CCNC5)cc4)ncc3[C@@]3(C)COC(C)(C)C[C@@H]23)n1 (single isomer, unassigned) [Example 327] |  |  | < 10 | 100 to 1000 |

Other lines, results leading:

| IC50 (Wee1 kinase domain; [2]) [nM] | IC50 [1, 3] [nM] | IC50 (Wee1 kinase domain; Wee1 kinase domain, ADP-Glo) [nM] | IC50 ([1]; A-427, pCDC2 MSD) [nM] | Compound |
| --- | --- | --- | --- | --- |
| < 10 | < 100 |  |  | CN[C@H]1CCc2ccc(N3c4nc(Nc5ccc(N6CCOCC6)cc5)ncc4C4(C)COC(C)(C)CC34)nc21 (stereo in doubt) [Example 551, (4bR,8aR)-4b,7,7-trimethyl-9-((S)-7-(methylamino)-6,7-dihydro-5H-cyclopenta[b]pyridin-2-yl)-N-(4-morpholinophenyl)-4b,5,7,8,8a,9-hexahydropyrano[3′,4′:4,5]pyrrolo[2,3-d]pyrimidin-2-amine] |
| < 10 | 100 to 1000 |  |  | CN1CCN(c2ccc(Nc3ncc4c(n3)N(c3cccc(N5CCCC5=O)n3)[C@@H]3CC(C)(C)OC[C@]43C)cc2)CC1 (single isomer, unassigned) [Example 587] |
| < 10 | 100 to 1000 |  |  | CNCc1cccc(N2c3nc(Nc4ccc(N5CCN(C)CC5)c(C)c4)ncc3[C@@]3(C)COC(C)(C)C[C@@H]23)n1 (single isomer, unassigned) [Example 448] |
| < 10 | 100 to 1000 |  |  | CN1C[C@H]2C[C@@H]1CN2c1ccc(Nc2ncc3c(n2)N(c2cccc(N4CCOC4=O)n2)[C@@H]2CC(C)(C)OC[C@]32C)cc1 (single isomer, unassigned) [Example 593] |
| < 10 | 1000 to 10000 |  |  | CN1CCN(c2ccc(Nc3ncc4c(n3)N(c3ccn(C5CC5)n3)[C@@H]3CC(C)(C)OC[C@]43C)cc2)CC1 (single isomer, unassigned) [Example 739] |
| < 10 | 100 to 1000 |  |  | C[C@H]1CCC(=O)N1c1cccc(N2c3nc(Nc4ccc(N5C[C@H]6C[C@@H]5CN6C)cc4)ncc3[C@@]3(C)COC(C)(C)C[C@@H]23)n1 [Example 657, (S)-5-methyl-1-(6-((4bR,8aR)-4b,7,7-trimethyl-2-((4-((1R,4R)-5-methyl-2,5-diazabicyclo[2.2.1]heptan-2-yl)phenyl)amino)-4b,7,8,8a-tetrahydropyrano[3′,4′:4,5]pyrrolo[2,3-d]pyrimidin-9(5H)-yl)pyridin-2-yl)pyrrolidin-2-one] |
| < 10 | 100 to 1000 |  |  | CC1(C)C[C@H]2N(c3cccc([C@H]4CCNC4)n3)c3nc(Nc4ccc(N5CCOCC5)cc4)ncc3[C@@]2(C)CO1 (single isomer, unassigned) [Example 542] |
| < 10 | < 100 |  |  | CN1CCN(c2cncc(Nc3ncc4c(n3)N(c3cccc(N=S(C)(C)=O)n3)[C@@H]3CC(C)(C)OC[C@]43C)c2)CC1 (single isomer, unassigned) [Example 483] |
| < 10 | < 100 |  |  | CN1CCN(c2ccc(Nc3ncc4c(n3)N(c3cccc(N5CCOC5=O)n3)[C@@H]3CC(C)(C)OC[C@]43C)cc2)CC1 (single isomer, unassigned) [Example 577] |
| < 10 | 100 to 1000 |  |  | CN1C[C@H]2C[C@@H]1CN2c1ccc(Nc2ncc3c(n2)N(c2cccc(N=S(C)(C)=O)c2)[C@@H]2CC(C)(C)OC[C@]32C)cc1 [Example 713, dimethyl((3-((4bR,8aR)-4b,7,7-trimethyl-2-((4-((1R,4R)-5-methyl-2,5-diazabicyclo[2.2.1]heptan-2-yl)phenyl)amino)-4b,7,8,8a-tetrahydropyrano[3′,4′:4,5]pyrrolo[2,3-d]pyrimidin-9(5H)-yl)phenyl)imino)-16-sulfanone] |
| < 10 | 100 to 1000 |  |  | CN=[S@@](C)(=O)c1cccc(N2c3nc(Nc4ccc(N5CCN(C)CC5)cc4)ncc3[C@@]3(C)COC(C)(C)C[C@@H]23)n1 (single isomer, unassigned) [Example 765] |
| < 10 | 100 to 1000 |  |  | CN1C[C@H]2C[C@@H]1CN2c1ccc(Nc2ncc3c(n2)N(c2cccc(N4CCCC4=O)n2)[C@@H]2CC(C)(C)OC[C@]32C)cc1 [Example 631, 1-(6-((4bR,8aR)-4b,7,7-trimethyl-2-((4-((1R,4R)-5-methyl-2,5-diazabicyclo[2.2.1]heptan-2-yl)phenyl)amino)-4b,7,8,8a-tetrahydropyrano[3′,4′:4,5]pyrrolo[2,3-d]pyrimidin-9(5H)-yl)pyridin-2-yl)pyrrolidin-2-one] |
| < 10 | 100 to 1000 |  |  | CN1C[C@@H]2C[C@H]1CN2c1ccc(Nc2ncc3c(n2)N(c2cccc(C(C)(C)O)n2)[C@@H]2CC(C)(C)OC[C@]32C)cc1Cl (single isomer, unassigned) [Example 435] |
| < 10 | 100 to 1000 |  |  | C[C@H]1CCC(=O)N1c1cccc(N2c3nc(Nc4ccc(N5CC6(CN(C)C6)C5)cc4)ncc3[C@@]3(C)COC(C)(C)C[C@@H]23)n1 (single isomer, unassigned) [Example 725] |
| < 10 | 100 to 1000 |  |  | C[C@H]1COC(=O)N1c1cccc(N2c3nc(Nc4ccn(C5CCOCC5)c(=O)c4)ncc3[C@@]3(C)COC(C)(C)C[C@@H]23)n1 (single isomer, unassigned) [Example 781] |
| < 10 | 100 to 1000 |  |  | CN1C[C@@H]2C[C@H]1CN2c1ccc(Nc2ncc3c(n2)N(c2ccn(C)n2)[C@@H]2CC(C)(C)OC[C@]32C)cc1 (single isomer, unassigned) [Example 519] |
| < 10 | 1000 to 10000 |  |  | CN1CCC(n2cc(Nc3ncc4c(n3)N(c3cccc(N=S(C)(C)=O)c3)[C@@H]3CC(C)(C)OC[C@]43C)cn2)CC1 [Example 716, dimethyl((3-((4bR,8aR)-4b,7,7-trimethyl-2-((1-(1-methylpiperidin-4-yl)-1H-pyrazol-4-yl)amino)-4b,7,8,8a-tetrahydropyrano[3′,4′:4,5]pyrrolo[2,3-d]pyrimidin-9(5H)-yl)phenyl)imino)-16-sulfanone] |
| < 10 | 100 to 1000 |  |  | CN1CCC(c2ccc(Nc3ncc4c(n3)N(c3cccc(S(C)(=O)=O)n3)[C@@H]3CC(C)(C)OC[C@]43C)cc2)CC1 (single isomer, unassigned) [Example 757] |
| < 10 | 100 to 1000 |  |  | CN1C[C@H]2C[C@@H]1CN2c1ccc(Nc2ncc3c(n2)N(c2cccc(C(C)(C)O)n2)[C@@H]2CC(C)(C)OC[C@]32C)cc1F (single isomer, unassigned) [Example 427] |
